Reference: US5633227A, “Secretory leukocyte protease inhibitor as an inhibitor of tryptase” (Miles, Inc., priority 1994, dated 1997)
Ends that are not written are not given here. * marks the point of attachment. Dansyl = CN(C)c1cccc2c(S(=O)(=O)*)cccc12

Columns and labels:
human mast cell tryptase [1] = experiment: VIP assay for tryptase activity (Dns-VIP hydrolysis, HPLC/fluorescence, Dixon plot); assay type: biochemical; details: 0.4 and 0.8 μM VIP; 12.5 pM tryptase; 37° C.; read-out: Ki for inhibition of the formation of Dns-VIP-(1-14)
Protocol: In a typical assay, mast cell tryptase (12.5 pM) was incubated at 37° C. with dansyl-VIP (0.2-2 μM) in 100 mM Tris-HCl (pH 8.0) containing 1 μg/ml porcine mucosal heparin and 0.02% Triton X-100 in a final volume of 2.0 ml. To some samples, secretory leukocyte protease inhibitor was added to a final concentration of between 0 and 107 nM. The tryptase was pre-incubated with the SLPI, if added, for 5 min. at 37° C. before initiating the reaction by the addition of Dns-VIP. Aliquots (250 μl) were removed at 0, 2.5, 5.0, 7.5, 10, and 20 minutes to micro-vials (Sunbrokers) and the reaction terminated by the addition of TFA to a final concentration of 3% (v/v). The acidified reaction mixture was subjected to chromatography on a C-18 reverse-phase column (Vydac, 5 micron, 0.46×25 cm). Peptide hydrolysis was monitored by HPLC using a Hewlett Packard HP1090 unit complete with binary solvent delivery and autoinjection capability. Fluorescent detection (postcolumn) was performed with an inline Gilson Model 121 filter fluorimeter (excitation at 310-410 nm, emission at 480-520 nm). Dns-VIP fragments were separated from any unconverted Dns-VIP using a linear gradient of 69:31 (v/v) to 50:50 (v/v) C:D over 5.5 minutes (C=100 mM sodium acetate, pH 6.5 plus 0.2% sodium azide, D=80% ACN in water), with return to 69:31 (v/v) C:D at 6.5 minutes. Chromatography was performed at 1.0 ml/min at 25° C. […]

tryptase = experiment: GPK-AMC assay for tryptase activity (Dixon plot); assay type: biochemical, human; details: 20 and 40 μM GPK-AMC; 37° C.; read-out: Ki for inhibition of tryptase catalyzed cleavage of GPK-AMC
Protocol: Tryptase activity was measured according to the procedure of Schwartz, et al., J. Biol. Chem., 261, 7372-7379 (1986) , with minor modifications, using Gly-Pro-Lys-Aminomethylcoumarin (GPK-AMC) as a substrate. The reaction was performed in assay buffer (0.1M Tris, pH 8.0, 10 μg/ml heparin) at room temperature in a 96-well microtiter plate (Perkin-Elmer, Norwalk, Conn.). The amount of coumarin produced by tryptase was determined by measuring the fluorescence (ex=372 nm, em=432 nm) on a Perkin-Elmer LS-50B fluorimeter equipped with a plate reader. 50 μl of tryptase (final concentration of 333 pM) was mixed with either 50 μl of the sample to be tested or with assay buffer and incubated for 5 min. at room temperature. […] The fluorescence intensity was measured every 5 minutes. For samples that were being tested for modulators of tryptase activity, the % inhibition for each fraction was determined by:
Inhibitory activity against tryptase and bovine trypsin was measured using Gly-Pro-Lys-aminomethylcoumarin as a substrate. […] The amount of coumarin produced was determined by measuring the fluorescence (ex=370 nm, em=432 nm) on a Perkin-Elmer LS-50B fluorimeter. […] The reaction was started by the addition of the substrate GPK-AMC (20 or 40 μM final) and the increase in fluorescence was measured over a 2 minute period. […]

bovine trypsin = target: T1, bovine trypsin (Bos taurus, UniProt P00760); experiment: GPK-AMC assay for trypsin activity (Dixon plot); assay type: biochemical; details: at a concentration of 1800 nM
T1 sequence (P00760 24-246): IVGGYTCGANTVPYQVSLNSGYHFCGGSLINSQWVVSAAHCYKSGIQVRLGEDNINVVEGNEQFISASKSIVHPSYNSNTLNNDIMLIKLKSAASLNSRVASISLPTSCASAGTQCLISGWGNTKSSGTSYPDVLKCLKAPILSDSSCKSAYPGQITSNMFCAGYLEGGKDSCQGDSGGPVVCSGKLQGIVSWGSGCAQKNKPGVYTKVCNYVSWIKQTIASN
Protocol: Inhibitory activity against tryptase and bovine trypsin was measured using Gly-Pro-Lys-aminomethylcoumarin as a substrate. The reaction was performed in assay buffer that consisted of 0.1M Tris (pH 8.0), 1 μg/ml heparin, 0.02% Triton X-100, with 20 mM CaCl2 included only in the trypsin assays. The amount of coumarin produced was determined by measuring the fluorescence (ex=370 nm, em=432 nm) on a Perkin-Elmer LS-50B fluorimeter. To measure tryptase activity, 12 μl of a 1 nM solution of tryptase (tetramer) was incubated with either the N- (34 to 650 nM final) or the C-terminal (7-150 nM final) domain of SLPI in 1.0 ml of assay buffer for 5 minutes at 37° C. The reaction was started by the addition of the substrate GPK-AMC (20 or 40 μM final) and the increase in fluorescence was measured over a 2 minute period. In order to measure trypsin activity, 3.3 μl of a 10 μg/ml solution was incubated with either the N- or C- terminal domains of SLPI, and assayed using both 10 and 20 μM GPK-AMC. To determine Ki values, Dixon plots of the form 1/V vs [I] were constructed.

human mast cell tryptase [2] = experiment: Kinetic parameters for enzymatic cleavage of Dns-VIP by tryptase; assay type: biochemical
Protocol: In a typical assay, mast cell tryptase (12.5 pM) was incubated at 37° C. with dansyl-VIP (0.2-2 μM) in 100 mM Tris-HCl (pH 8.0) containing 1 μg/ml porcine mucosal heparin and 0.02% Triton X-100 in a final volume of 2.0 ml. To some samples, secretory leukocyte protease inhibitor was added to a final concentration of between 0 and 107 nM. The tryptase was pre-incubated with the SLPI, if added, for 5 min. at 37° C. before initiating the reaction by the addition of Dns-VIP. Aliquots (250 μl) were removed at 0, 2.5, 5.0, 7.5, 10, and 20 minutes to micro-vials (Sunbrokers) and the reaction terminated by the addition of TFA to a final concentration of 3% (v/v). The acidified reaction mixture was subjected to chromatography on a C-18 reverse-phase column (Vydac, 5 micron, 0.46×25 cm). Peptide hydrolysis was monitored by HPLC using a Hewlett Packard HP1090 unit complete with binary solvent delivery and autoinjection capability. Fluorescent detection (postcolumn) was performed with an inline Gilson Model 121 filter fluorimeter (excitation at 310-410 nm, emission at 480-520 nm). Dns-VIP fragments were separated from any unconverted Dns-VIP using a linear gradient of 69:31 (v/v) to 50:50 (v/v) C:D over 5.5 minutes (C=100 mM sodium acetate, pH 6.5 plus 0.2% sodium azide, D=80% ACN in water), with return to 69:31 (v/v) C:D at 6.5 minutes. Chromatography was performed at 1.0 ml/min at 25° C. The N-terminal fluorescent products were identified by subjecting known VIP fragments (see above) to chromatography under identical conditions.
The kinetic parameters Km, kcat, and Vmax for the initial rate of formation of Dns-VIP-(1-14) and Dns-VIP-(1-20), as well as the initial rate of disappearance of full-length Dns-VIP were determined. The initial velocity for the formation of Dns-VIP-(1-20) also contains the rate for the formation of Dns-VIP-(1-21) since it appears as a shoulder on the Dns-VIP-(1-20) peak within the elution profile. […] The effect of salt concentration on the initial rates of cleavage of Dns-VIP was measured in 150 mM NaCl and 10 mM CaCl2. In all cases, the kcat/Km values decreased with increasing salt concentration. […] However, this effect was offset by an increase in all of the Km values. […] The results for 10 mM CaCl2 were similar in that Km and Vmax values increased and kcat/Km ratios decreased.
Initial reaction velocities were obtained from a linear least squares analysis of the linear part of a plot of the number of picomoles of each product produced vs. time and where less than 10% of the total Dns-VIP was consumed. To determine the Ki value, a Dixon plot of the form 1/V vs. [I] was made for data collected at two different concentrations of VIP, where V is the velocity (pmoles/min) and [I] is the concentration of SLPI used.

Ki (tryptase) | Inhibition of trypsin (bovine trypsin) | Substance | Ki (human mast cell tryptase [1]) | decrease in the kcat/Km ratio (human mast cell tryptase [2]; 10 mM CaCl2 vs no addition) | decrease in the kcat/Km ratio (human mast cell tryptase [2]; 150 mM NaCl vs no addition) | increase in Km (human mast cell tryptase [2]; 150 mM NaCl vs no addition) | Km (human mast cell tryptase [2]; Addition: 10 mM CaCl2) | Vmax (human mast cell tryptase [2]; Addition: 10 mM CaCl2) | kcat/Km (human mast cell tryptase [2]; Addition: 10 mM CaCl2) | Km (human mast cell tryptase [2]; Addition: 150 mM NaCl) | Vmax (human mast cell tryptase [2]; Addition: 150 mM NaCl) | kcat/Km (human mast cell tryptase [2]; Addition: 150 mM NaCl) | Km (human mast cell tryptase [2]; Addition: None) | Vmax (human mast cell tryptase [2]; Addition: None) | kcat/Km (human mast cell tryptase [2]; Addition: None) | increase in Vmax (human mast cell tryptase [2]; 150 mM NaCl vs no addition)
290 nM | unable to inhibit | N-terminal domain: N-terminal domain of SLPI, amino acids 1-49, from formic acid cleavage of recombinant SLPI (SGKSFKAGVCPPKKSAQCLRYKKPECQSDWQCPGKKRCCPDTCGIKCLD) | 130 nM | – | – | – | – | – | – | – | – | – | – | – | – | –
– | – | Dns-VIP-(1-20): Dansyl-VIP fragment of amino acids 1-20 formed by tryptase cleavage after Lys-20; peak includes the 1-21 shoulder (Dansyl-HSDAVFTDNYTRLRKQMAVK; UniProt P01282 125-144, looked up, fragment) | – | 11 fold | 47 fold | 72 fold | 4.5 µM | 2.6 pmol/min/mg | 0.13 M^-1 sec^1 × 10^7 | 9.4 µM | 1.1 pmol/min/mg | 0.03 M^-1 sec^1 × 10^7 | 0.1 µM | 0.6 pmol/min/mg | 1.4 M^-1 sec^1 × 10^7 | –
– | – | Dns-VIP-(1-14): Dansyl-VIP fragment of amino acids 1-14 formed by tryptase cleavage after Arg-14 (Dansyl-HSDAVFTDNYTRLR; UniProt P01282 125-138, looked up, fragment) | – | 9 fold | 16 fold | 59 fold | 4.1 µM | 4.5 pmol/min/mg | 0.25 M^-1 sec^1 × 10^7 | 7.7 µM | 4.9 pmol/min/mg | 0.14 M^-1 sec^1 × 10^7 | 0.1 µM | 1.3 pmol/min/mg | 2.3 M^-1 sec^1 × 10^7 | 4 fold
4.8 nM | – | C-terminal domain: C-terminal domain of SLPI, amino acids 50-107, from formic acid cleavage of recombinant SLPI (PVDTPNPTRRKPGKCPVTYGQCLMLNPPNFCEMDGQCKRDLKCCMGMCGKSCVSPVKA) | 1.6 nM | – | – | – | – | – | – | – | – | – | – | – | – | –
– | – | Dns-VIP: N-terminally dansylated vasoactive intestinal peptide (28 amino acids), tryptase substrate (Dansyl-HSDAVFTDNYTRLRKQMAVKKYLNSILN; ends and bridges not checked; also: synthesized on Rink resin (C-terminus not given here)) | – | ~5 fold | 9 fold | 14 fold | 4.7 µM | 8.2 pmol/min/mg | 0.4 M^-1 sec^1 × 10^7 | 7.4 µM | 6.6 pmol/min/mg | 0.2 M^-1 sec^1 × 10^7 | 0.5 µM | 4.3 pmol/min/mg | 1.8 M^-1 sec^1 × 10^7 | –
